Test results from US20240173298A1, “COMPOSITION FOR AMELIORATING OR SUPPRESSING DECLINE OF KIDNEY FUNCTIONS” (SUNTORY HOLDINGS LIMITED, priority 2021, published 2024).

How the values were obtained:
[1] = Study on evaluation of blood renal function markers in humans (placebo-controlled, randomized, double-blind, parallel-group); assay type: in vivo; details: one capsule with 20 mg L-ergothioneine per day, oral, four weeks, week 4 minus pre-testing, versus control food group
Method: In order to evaluate the influence of supplements containing ergothioneine on blood renal function marker levels in humans, a placebo-controlled, randomized, double-blind, parallel-group study was conducted on subjects including male and female adults (46 subjects in a test food group; 46 subjects in a control food group; 92 subjects in total). In this study, one capsule containing 20 mg ergothioneine (test food) or one capsule not containing ergothioneine (control food) was fed per day for four weeks. Blood renal function marker levels of each subject were measured for pre-testing before starting the study (before starting ingestion of the test food or control food). After ingestion of the test food or control food for four weeks, blood renal function marker levels of each subject were measured again (testing on week 4). Renal function markers used for measurement were BUN, uric acid, and creatinine. […] For each subject, the BUN level measured at the time of pre-testing was subtracted from the BUN level measured at the time of testing on week 4 ((level measured at the time of testing on week 4)—(level measured at the time of pre-testing)) to determine Δ in level (the amount of change in BUN level) (mg/dL). […] For each subject, the uric acid level measured at the time of pre-testing was subtracted from the uric acid level measured at the time of testing on week 4 ((level measured at the time of testing on week 4)−(level measured at the time of pre-testing)) to determine Δ in level (the amount of change in uric acid level) (mg/dL). […] For each subject, the creatinine level measured at the time of pre-testing was subtracted from the creatinine level measured at the time of testing on week 4 ((level measured at the time of testing on week 4)−(level measured at the time of pre-testing)) to determine Δ in level (the amount of change in creatinine level) (mg/dL). […]

[2] = mice, oral administration, versus mice not administered; cited from earlier work

C[N+](C)(C)[C@@H](Cc1c[nH]c(=S)[nH]1)C(=O)[O-] [L-ergothioneine]
change in BUN level (Δ in BUN) [1]: reduced
change in blood creatinine level (Δ in creatinine) [1]: reduced
change in blood uric acid level (Δ in uric acid) [1]: reduced
peritesticular fat weight [2]: lower
triglyceride (neutral fat) level in plasma [2]: lower
